From patent US8168654B2 (priority 2003, dated 2012)
Structures can show the parent of a compound that is named as a salt.

Target: T1, human muscarinic acetylcholine M3 receptor (Homo sapiens, UniProt P20309)
T1 construct: expressed in transfected cells; host or cells: CHO cells, stably transfected; membranes
Experiment: biochemical
Type: binding

T1 sequence (P20309 whole entry): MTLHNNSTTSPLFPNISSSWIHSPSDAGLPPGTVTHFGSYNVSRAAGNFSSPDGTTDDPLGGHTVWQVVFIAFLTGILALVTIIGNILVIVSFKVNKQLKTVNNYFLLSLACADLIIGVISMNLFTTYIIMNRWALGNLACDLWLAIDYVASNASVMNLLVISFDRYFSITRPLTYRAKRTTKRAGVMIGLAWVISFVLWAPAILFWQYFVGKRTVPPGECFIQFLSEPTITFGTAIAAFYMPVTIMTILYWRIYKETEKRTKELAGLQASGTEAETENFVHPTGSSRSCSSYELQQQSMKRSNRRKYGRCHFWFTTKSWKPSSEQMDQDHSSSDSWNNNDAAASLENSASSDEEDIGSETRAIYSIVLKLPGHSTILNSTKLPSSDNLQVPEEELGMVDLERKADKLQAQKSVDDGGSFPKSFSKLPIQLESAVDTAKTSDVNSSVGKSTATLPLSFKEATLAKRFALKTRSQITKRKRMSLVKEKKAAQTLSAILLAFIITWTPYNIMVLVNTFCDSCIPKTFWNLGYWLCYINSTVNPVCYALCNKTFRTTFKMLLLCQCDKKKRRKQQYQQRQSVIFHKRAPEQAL

Row | SMILES | Ki [nM]
1 | O=C(Cc1ccccc1)NCCC[N+]12CCC(CC1)[C@@H](OC(=O)C(O)(c1ccccc1)c1ccccc1)C2 [Example 34, (R)-3-(2-Hydroxy-2,2-diphenyl-acetoxy)-1-(3-phenylacetylamino-propyl)-1-azonia-bicyclo[2.2.2]octane trifluoroacetate] | 2.3
2 | O=C(C[N+]12CCC(CC1)[C@@H](OC(=O)C(O)(c1ccccc1)c1ccccc1)C2)Nc1ccccc1 [Example 52, (R)-3-(2-Hydroxy-2,2-diphenyl-acetoxy)-1-phenylcarbamoylmethyl-1-azonia-bicyclo[2.2.2]octane] | 1.9
3 | O=C(C[N+]12CCC(CC1)[C@@H](OC(=O)C(O)(c1cccs1)c1cccs1)C2)Nc1ccccc1 [Example 76, (R)-3-(2-Hydroxy-2,2-di-thiophen-2-yl-acetoxy)-1-phenylcarbamoylmethyl-1-azonia-bicyclo[2.2.2]octane trifluoroacetate] | 1.1
4 | O=C(C[N+]12CCC(CC1)[C@@H](OC(=O)C(O)(c1ccccc1)c1ccccc1)C2)NCCc1cccs1 [Example 96, (R)-3-(2-Hydroxy-2,2-diphenyl-acetoxy)-1-[(2-thiophen-2-yl-ethylcarbamoyl)-methyl]-1-azonia-bicyclo[2.2.2]octane trifluoroacetate] | 4.6
5 | O=C(NCC[N+]12CCC(CC1)[C@@H](OC(=O)C(O)(c1ccccc1)c1ccccc1)C2)c1cnccn1 [Example 138, (R)-3-(2-Hydroxy-2,2-diphenyl-acetoxy)-1-(2-[{pyrazine-2-carbonyl)-amino]-ethyl}-1-azonia-bicyclo[2.2.2]octane trifluoroacetate] | 2.2
6 | O=C(C[N+]12CCC(CC1)[C@@H](OC(=O)C(O)(c1cccs1)c1cccs1)C2)Nc1cnccn1 [Example 159, (R)-3-(2-Hydroxy-2,2-di-thiophen-2-yl-acetoxy)-1-(pyrazin-2-ylcarbamoylmethyl)-1-azonia-bicyclo[2.2.2]octane bromide] | 0.7
7 | O=C(NCC[N+]12CCC(CC1)[C@@H](OC(=O)C(O)(c1ccccc1)c1ccccc1)C2)C1(O)CC1 [Example 221, (R)-1-[2-[(1-Hydroxy-cyclo-propanecarbonyl)-amino]-ethyl]-3-(2-hydroxy-2,2-diphenyl-acetoxy)-1-azonia-bicyclo[2.2.2]-octane hexafluorophosphate] | 1.3
8 | O=C(C[N+]12CCC(CC1)[C@@H](OC(=O)C(O)(c1ccccc1)c1ccccc1)C2)Nc1ccon1 [Example 242, (R)-3-(2-Hydroxy-2,2-diphenyl-acetoxy)-1-(isoxazol-3ylcarbamoylmethyl)-1-azonia-bicyclo[2.2.2]octane bromide] | 0.3
9 | O=C(C[N+]12CCC(CC1)[C@@H](OC(=O)C(O)(c1cccs1)c1cccs1)C2)Nc1ccncn1 [Example 244, (R)-3-(2-Hydroxy-2,2-di-thiophen-2-yl-acetoxy)-1-(pyrimidin-4-ylcarbamoylmethyl)-1-azonia-bicyclo[2.2.2]octane bromide] | 0.3
